Assay results: US20210330611A1, “THERAPY FOR NEUROLOGICAL DISEASES/DISORDERS” (priority 2020, published 2021)
Read-outs that look alike come from different tables or passages of the source.

Columns and labels:
primary rat microglia [1] = assay: Cell toxicity (dead cells, size <150 μm2) in coated fibrin (cFib) assay;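 further: share of dead cells sized under 150 µm2 at 10 µM in fibrin-stimulated microglia HTS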
[2] = test system: fibrin-induced microglia activation; assay: Image-based assay of fibrin-induced microglia activation (HTS and dose response); format: cell-based, rat; settings: for inhibition at 10 µM: Rattus norvegicus, Microglia, read-out: Fibrin % inhibition
[3] = test system: fibrin- and LPS-induced microglia activation; assay: cells; format: cell-based, rat
primary rat microglia [4] = assay: Cell toxicity (dead cells, size <150 μm2) in LPS assay
[5] = test system: LPS-induced microglia activation; assay: Image-based assay of LPS-induced microglia activation (HTS and dose response); format: cell-based, rat; settings: for inhibition at 10 µM: Rattus norvegicus, Microglia, read-out: LPS % inhibition
[6] = primary HTS, 10 μM, fibrin assay, dead cells size <150 μm2
[7] = primary HTS, 10 μM, fibrin-stimulated primary microglia
[8] = primary HTS, 10 μM, LPS assay, dead cells size <150 μm2
[9] = primary HTS, 10 μM, LPS-stimulated primary microglia
[10] = primary microglia HTS, fibrin stimulation, decreased size (<150 μm^2) as marker of toxicity
[11] = primary microglia HTS, fibrin stimulation, increased cell size (>800 μm^2) as marker of activation
[12] = quadrant by fibrin and LPS inhibition in HTS of 1907 compounds
[13] = primary microglia HTS, LPS stimulation, decreased size (<150 μm^2) as marker of toxicity
[14] = 48 h, primary microglia HTS, LPS stimulation, increased cell size (>800 μm^2) as marker of activation

Row | SMILES | Fibrin % cell toxicity (primary rat microglia [1]; [6]) [%] | inhibition at 10 µM [2, 7] [%] | Quadrant (FIG. 5b) ([3]; primary HTS, 10 μM) | LPS % cell toxicity (primary rat microglia [4]; [8]) [%] | inhibition at 10 µM [5, 9] [%] | Fibrin % inhibition [2, 7] [%] | LPS % inhibition [5, 9] [%] | Fibrin % cell toxicity (primary rat microglia [1]; [10]) [%] | inhibition at 10 µM [2, 11] [%] | Quadrant (FIG. 5b) [3, 12] | LPS % cell toxicity (primary rat microglia [4]; [13]) [%] | inhibition at 10 µM [5, 14] [%] | Fibrin % inhibition [2, 11] [%] | LPS % inhibition ([5]; primary microglia HTS, LPS stimulation, increased cell size (>800 μm^2) as marker of activation) [%]
1 | Oc1ccc(Cl)c2c1CCC2 [Chlorindanol] | 1 | 23 | Q4 | 0 | 15 |  |  |  |  |  |  |  |  | 
2 | O=C1c2ccccc2C(=O)C1c1ccc(Cl)cc1 [Chlorindione] | 1 |  | Q4 | 0 |  | −7 | 10 |  |  |  |  |  |  | 
3 | Cc1nc2ccccc2n1Cc1ccc(Cl)cc1 [Chlormidazole] |  |  |  |  |  |  |  | 1 | 38 | Q1 | 2 | 70 |  | 
4 | CC(C)(O)C(Cl)(Cl)Cl [Chlorobutanol] | 1 | -20 | Q4 | 0 | 3 |  |  |  |  |  |  |  |  | 
5 | Cc1cc(O)ccc1Cl [Chlorocresol] | 1 | -25 | Q4 | 0 | 11 |  |  |  |  |  |  |  |  | 
6 | CN(C)CCN(Cc1ccc(Cl)cc1)c1ccccn1 [Chloropyramine] | 1 | 25 | Q4 | 0 | 13 |  |  |  |  |  |  |  |  | 
7 | NS(=O)(=O)c1cc2c(cc1Cl)N=CNS2(=O)=O [Chlorothiazide] | 0 | 20 | Q4 | 0 | 3 |  |  |  |  |  |  |  |  | 
8 | Cc1cc(O)cc(C)c1Cl [Chloroxylenol] | 1 | -15 | Q4 | 0 | 7 |  |  |  |  |  |  |  |  | 
9 | NC(=O)OCC(O)COc1ccc(Cl)cc1 (stereo not shown) [Chlorphenesin Carbamate] | 1 | -41 | Q4 | 0 | -4 |  |  |  |  |  |  |  |  | 
10 | CCCNC(=O)NS(=O)(=O)c1ccc(Cl)cc1 [Chlorpropamide] | 1 | 3 | Q4 | 1 | 17 |  |  |  |  |  |  |  |  | 
11 | Cc1ccc2c(Cl)cc(Cl)c(O)c2n1 [Chlorquinaldol] | 1 | -14 | Q4 | 0 | 15 |  |  |  |  |  |  |  |  | 
12 | CN(C)[C@@H]1C(O)=C(C(N)=O)C(=O)[C@@]2(O)C(O)=C3C(=O)c4c(O)ccc(Cl)c4[C@@](C)(O)[C@H]3C[C@@H]12 [Chlortetracycline] | 1 | -15 | Q4 | 0 | -6 |  |  |  |  |  |  |  |  | 
13 | CC(C)CCC[C@@H](C)[C@H]1CC[C@H]2[C@@H]3CC=C4C[C@@H](O)CC[C@]4(C)[C@H]3CC[C@]12C [Cholesterol] | 0 | 4 | Q4 | 0 | 9 |  |  |  |  |  |  |  |  | 
14 | O=C(O)c1cc(=O)c2ccccc2o1 [Chromocarb] | 1 | -7 | Q4 | 0 | 5 |  |  |  |  |  |  |  |  | 
15 | Oc1cc(O)c2c(c1)O[C@H](c1ccc(O)c(O)c1)[C@@H](O)C2 [Cianidanol] | 0 | -19 | Q4 | 0 | 7 |  |  |  |  |  |  |  |  | 
16 | Cc1cc(C2CCCCC2)n(O)c(=O)c1 [Ciclopirox] | 1 | -1 | Q4 | 1 | 40 |  |  |  |  |  |  |  |  | 
17 | CCC(CC)(CC(=O)Nc1cccc(/C=C/c2nc(C3CCC3)cs2)c1)C(=O)O [Cinalukast] | 1 | -21 | Q4 | 0 | -8 |  |  |  |  |  |  |  |  | 
18 | CCCCOc1cc(C(=O)NCCN(CC)CC)c2ccccc2n1 [Cinchocaine] | 0 | -57 | Q4 | 0 | 7 |  |  |  |  |  |  |  |  | 
19 | C=C[C@H]1CN2CC[C@H]1C[C@H]2[C@H](O)c1ccnc2ccccc12 [Cinchonidine] | 1 | 13 | Q4 | 0 | 4 |  |  |  |  |  |  |  |  | 
20 | C=C[C@H]1C[N@@]2CC[C@H]1C[C@@H]2[C@@H](O)c1ccnc2ccccc12 [Cinchonine] | 1 | -6 | Q4 | 0 | 28 |  |  |  |  |  |  |  |  | 
21 | O=C(O)c1cc(-c2ccccc2)nc2ccccc12 [Cinchophen] | 1 | -9 | Q4 | 0 | 36 |  |  |  |  |  |  |  |  | 
22 | COc1cc(/C=C/C(=O)N2CCCCCCC2)cc(OC)c1OC [Cinoctramide] |  |  |  |  |  |  |  | 4 |  | Q2 | 1 |  | 90 | 53
23 | CCn1nc(C(=O)O)c(=O)c2cc3c(cc21)OCO3 [Cinoxacin] |  |  |  |  |  |  |  | 50 | 117 | Q2 | 12 | 115 |  | 
24 | CCNC(=O)/C=C/c1cccc(Br)c1 [Cinromide] | 1 | -10 | Q4 | 0 | 13 |  |  |  |  |  |  |  |  | 
25 | COc1cc(/C=C/C(N)=O)cc(OC)c1OC [Cintriamide] | 1 | -2 | Q4 | 0 | 15 |  |  |  |  |  |  |  |  | 
26 | CC(=O)NC1CCSC1=O (stereo not shown) [Citiolone] | 0 | -32 | Q4 | 0 | 7 |  |  |  |  |  |  |  |  | 
27 | O=C(O)[C@H]1/C(=C/CO)O[C@@H]2CC(=O)N21 [Clavulanate] | 0 | -16 | Q4 | 0 | 5 |  |  |  |  |  |  |  |  | 
28 | C[N+]12CCC(CC1)C(OC(=O)C(O)(c1ccccc1)c1ccccc1)C2 (stereo not shown) [Clidinium Bromide] | 1 | -20 | Q4 | 0 | 9 |  |  |  |  |  |  |  |  | 
29 | CC(C)(C)C(=O)C(Oc1ccc(Cl)cc1)n1ccnc1 (stereo not shown) [Climbazole] | 1 | -10 | Q4 | 0 | 1 |  |  |  |  |  |  |  |  | 
